Reference: the OPERA property sets (Mansouri et al. 2018)

Question: Which logP does the source give for `Cn1c(=O)[nH]c(=O)c2[nH]c(=O)[nH]c21` here?
Answer: -1.08

Question: Which logP does the source give for `Cn1c(=O)[nH]c(=O)c2c1[nH]c(=O)n2C` here?
Answer: -1.33

Question: Which logP does the source give for `Cn1c(=O)[nH]c2[nH]c(=O)n(C)c2c1=O` here?
Answer: -0.22

Question: For `CN(C=O)c1c(N)n(C)c(=O)n(C)c1=O`, which logP is on record?
Answer: -1.32

Question: Which logP does the source give for `Cn1c(=O)[nH]c2nc[nH]c2c1=O` here?
Answer: -0.27

Question: For `Cn1c(=O)c2c([nH]c(=O)n2C)n(C)c1=O`, which logP is on record?
Answer: -0.37

Question: With `Cn1c(=O)[nH]c2[nH]c(=O)[nH]c2c1=O` as the compound, how does the logP read?
Answer: -0.57

Question: For `Cn1c(=O)c2[nH]c(=O)[nH]c2n(C)c1=O`, which logP is on record?
Answer: -0.52

Question: For `CN(C=O)c1c(N)[nH]c(=O)n(C)c1=O`, which logP is on record?
Answer: -2.03

Question: Which logP does the source give for `Cn1c(=O)[nH]c2[nH]c(=O)[nH]c(=O)c21` here?
Answer: -1.18

Question: With `CN(C=O)c1c(N)n(C)c(=O)[nH]c1=O` as the compound, how does the logP read?
Answer: -1.3

Question: For `Cn1c(N)c(NC=O)c(=O)n(C)c1=O`, which logP is on record?
Answer: -0.64

Question: For `Cn1c(=O)[nH]c(=O)c2[nH]cnc21`, which logP is on record?
Answer: -0.5

Question: For `Cn1cnc2[nH]c(=O)[nH]c(=O)c21`, which logP is on record?
Answer: -0.89
